According to patent US9868973B2, “Method for optimizing post-translational modifications on recombinant proteins” (STC Biologics, Inc., priority 2014, dated 2018):

Test system: fucosyl transferase
Assay: Modulation of glycosylation PTMs of trastuzumab biosimilar in CHO cells by FTI (Methods 1 and 2), 2AB glycan analysis
Assay type: cell-based, Chinese Hamster
Experimental: To obtain a recipe for production of a biosimilar with a similar glycosylation pattern to the original Herceptin®, CHO cells engineered to express the recombinant protein with an amino acid sequence identical to trastuzumab were first grown in the growth media without any inhibitors to establish a Baseline. The glycan species were analyzed using 2AB glycan method. It was observed that Peak 2 (G0) and Peak 6 (G1), and Peak 7 (mannose-5 and G1′) PTMs were lower for the biosimilar than their target PTMs.
G0, G1 and G1′ PTMs are non-fucosylated PTMs and are controlled by a host protein called fucosyl transferase and the mannose-5 PTM is controlled by the host protein known as α-mannosidase I. Fucosyl transferase can be inhibited by a variety of fucosyltransferase inhibitors shown in FIG. 2, α-mannosidase I can be inhibited by kifunensine.
Briefly to obtain trastuzumab with PTMs in the target range, cells were placed in growth media and treated with 2F-Peracetyl-Fucose (FTI) on day 7 at different concentrations (20 μM, 10 μM, 5 μM, 1 μM, 0.1 μM) to identify optimal drug concentration. On day 12 cells were harvested and the trastuzumab biosimilar isolated. […] FTI concentrations used to reach target PTMs are cell specific so it is expected that different concentrations of the FTI or other modulators would be required when a starting cell line is different from the one described in this example.
Different treatment methods such as Method 2 can be used to obtain target PTMs. For example, FTI can be added on a daily basis starting on day 5 (Table 3, Method 2) rather than on Day 7.

[1] = Method 1: 10 μM FTI on Day 7, trastuzumab biosimilar from CHO cells
[2] = Method 2: […]-[…] FTI every day starting at day 5, trastuzumab biosimilar from CHO cells

**Q.** What does the source list for `CC(=O)OC1O[C@@H](C)[C@@H](OC(C)=O)[C@@H](OC(C)=O)[C@@H]1F` (stereo partly shown) [FTI, 2F-Peracetyl-Fucose]?
**A.** G0, G1 and G1′ PTM levels versus target PTM range (10 μM FTI on day 7, harvest day 12): matched the target PTM range; G0, G1 and G1′ PTM levels versus target PTMs (20 μM FTI on day 7, harvest day 12): increase of G0, G1 and G1′ PTMs above that of target PTMs; PTMs versus target range (FTI at concentrations lower than 8 μM, day 7): outside the target range; Glycan Species Peak 1 [1]: 1.5%; Glycan Species Peak 2-G0 [1]: 4%; Glycan Species Peak 3 [1]: 1.5%; Glycan Species Peak 4-G0F [1]: 44%; Glycan Species Peak 5 [1]: 0.8%; Glycan Species Peak 6-G1 [1]: 1.8%; Glycan Species Peak 7- G1F/mannose 5 [1]: 1.2%; Glycan Species Peak 8- (1, 6)G1F [1]: 26%; Glycan Species Peak 9 (1, 3)G1F [1]: 11%; Glycan Species Peak 10 G2F [1]: 6.5%; Glycan Species Peak 11 [1]: 0.2%; Glycan Species Peak 12 [1]: 0.25%; Glycan Species Peak 13 [1]: 0.2%; Glycan Species Peak 14 [1]: 0.2%; Glycan Species Peak 15 [1]: 0.2%; Glycan Species Peak 4-G0F [2]: 44%; Glycan Species Peak 8- (1, 6)G1F [2]: 26%; Glycan Species Peak 9 (1, 3)G1F [2]: 11%; Glycan Species Peak 10 G2F [2]: 6.5%
